ChEMBL document CHEMBL1150306, “2-Trifluoroacetylthiophenes, a novel series of potent and selective class II histone deacetylase inhibitors” (Bioorg Med Chem Lett, 2008)
Active and inactive are the calls of the source. The rule behind the calls is not given here.

Assays:
[1] = test system: T1, Histone deacetylase 4 (Homo sapiens), P56524 [H976Y]; test: Inhibition of HDAC4GOF mutant at 10 uM
T1 sequence (whole entry): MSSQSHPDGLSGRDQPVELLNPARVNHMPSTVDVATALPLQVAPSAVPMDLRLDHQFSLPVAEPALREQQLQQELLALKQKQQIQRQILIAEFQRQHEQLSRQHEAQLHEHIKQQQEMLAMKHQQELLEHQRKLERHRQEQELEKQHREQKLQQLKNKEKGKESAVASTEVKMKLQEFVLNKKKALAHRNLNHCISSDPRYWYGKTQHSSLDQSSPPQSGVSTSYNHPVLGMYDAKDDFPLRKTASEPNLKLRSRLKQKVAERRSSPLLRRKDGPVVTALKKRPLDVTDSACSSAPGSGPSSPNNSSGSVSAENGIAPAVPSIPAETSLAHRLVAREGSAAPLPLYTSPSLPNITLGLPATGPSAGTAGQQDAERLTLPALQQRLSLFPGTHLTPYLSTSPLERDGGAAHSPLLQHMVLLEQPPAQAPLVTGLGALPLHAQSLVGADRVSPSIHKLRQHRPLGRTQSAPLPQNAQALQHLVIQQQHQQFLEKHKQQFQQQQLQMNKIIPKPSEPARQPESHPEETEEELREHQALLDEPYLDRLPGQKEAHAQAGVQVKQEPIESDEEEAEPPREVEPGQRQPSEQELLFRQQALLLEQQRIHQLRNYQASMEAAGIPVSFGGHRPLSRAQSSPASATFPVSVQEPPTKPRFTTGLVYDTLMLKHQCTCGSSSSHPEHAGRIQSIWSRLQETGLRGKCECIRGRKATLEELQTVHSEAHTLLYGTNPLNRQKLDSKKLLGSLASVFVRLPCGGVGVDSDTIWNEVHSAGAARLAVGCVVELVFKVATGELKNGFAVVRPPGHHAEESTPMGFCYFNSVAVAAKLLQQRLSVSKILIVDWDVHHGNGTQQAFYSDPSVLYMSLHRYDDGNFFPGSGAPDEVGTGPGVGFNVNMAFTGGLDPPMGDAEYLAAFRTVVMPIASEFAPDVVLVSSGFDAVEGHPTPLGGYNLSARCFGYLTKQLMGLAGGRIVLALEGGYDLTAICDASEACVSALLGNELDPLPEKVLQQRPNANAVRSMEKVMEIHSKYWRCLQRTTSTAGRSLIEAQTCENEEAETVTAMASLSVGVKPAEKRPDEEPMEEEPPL

[2] = target: T2, Protein deacetylase HDAC6 (Homo sapiens) (UniProt Q9UBN7); test: Inhibition of HDAC6 at 10 uM
T2 sequence (whole entry): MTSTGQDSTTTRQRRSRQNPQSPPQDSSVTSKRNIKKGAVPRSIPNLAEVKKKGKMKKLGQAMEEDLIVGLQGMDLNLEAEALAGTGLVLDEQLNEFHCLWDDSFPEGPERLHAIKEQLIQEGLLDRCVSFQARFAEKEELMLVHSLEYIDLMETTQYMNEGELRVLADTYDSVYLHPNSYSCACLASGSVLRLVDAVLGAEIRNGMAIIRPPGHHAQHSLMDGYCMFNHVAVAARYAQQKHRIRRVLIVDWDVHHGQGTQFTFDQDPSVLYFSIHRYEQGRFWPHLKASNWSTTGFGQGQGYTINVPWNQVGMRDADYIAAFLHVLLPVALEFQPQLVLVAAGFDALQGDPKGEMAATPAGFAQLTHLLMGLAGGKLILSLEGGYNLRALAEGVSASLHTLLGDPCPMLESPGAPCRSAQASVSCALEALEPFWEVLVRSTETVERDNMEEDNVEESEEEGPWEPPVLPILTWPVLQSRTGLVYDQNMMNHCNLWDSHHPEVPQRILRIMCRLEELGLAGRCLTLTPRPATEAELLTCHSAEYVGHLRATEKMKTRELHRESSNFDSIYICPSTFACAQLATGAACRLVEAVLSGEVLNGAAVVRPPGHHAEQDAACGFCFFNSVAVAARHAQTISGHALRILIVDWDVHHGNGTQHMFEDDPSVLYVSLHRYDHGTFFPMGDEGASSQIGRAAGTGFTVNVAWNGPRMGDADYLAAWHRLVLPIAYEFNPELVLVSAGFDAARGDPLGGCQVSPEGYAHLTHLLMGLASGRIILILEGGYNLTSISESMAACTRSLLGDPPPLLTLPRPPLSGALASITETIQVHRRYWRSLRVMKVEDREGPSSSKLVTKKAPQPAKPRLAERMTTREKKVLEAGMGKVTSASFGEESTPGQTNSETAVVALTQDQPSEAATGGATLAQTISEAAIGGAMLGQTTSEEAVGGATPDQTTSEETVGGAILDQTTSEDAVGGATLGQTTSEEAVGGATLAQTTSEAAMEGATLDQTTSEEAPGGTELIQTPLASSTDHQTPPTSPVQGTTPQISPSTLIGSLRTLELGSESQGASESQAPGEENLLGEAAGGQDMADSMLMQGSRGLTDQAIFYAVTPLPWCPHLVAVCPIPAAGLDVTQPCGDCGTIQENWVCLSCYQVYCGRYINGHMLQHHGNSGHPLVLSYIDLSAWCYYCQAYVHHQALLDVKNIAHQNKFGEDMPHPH

Histone deacetylase 3 [3] = target: T3, Histone deacetylase 3 (Homo sapiens, UniProt O15379); test: Inhibition of HDAC3 at 10 uM
T3 sequence (O15379 whole entry): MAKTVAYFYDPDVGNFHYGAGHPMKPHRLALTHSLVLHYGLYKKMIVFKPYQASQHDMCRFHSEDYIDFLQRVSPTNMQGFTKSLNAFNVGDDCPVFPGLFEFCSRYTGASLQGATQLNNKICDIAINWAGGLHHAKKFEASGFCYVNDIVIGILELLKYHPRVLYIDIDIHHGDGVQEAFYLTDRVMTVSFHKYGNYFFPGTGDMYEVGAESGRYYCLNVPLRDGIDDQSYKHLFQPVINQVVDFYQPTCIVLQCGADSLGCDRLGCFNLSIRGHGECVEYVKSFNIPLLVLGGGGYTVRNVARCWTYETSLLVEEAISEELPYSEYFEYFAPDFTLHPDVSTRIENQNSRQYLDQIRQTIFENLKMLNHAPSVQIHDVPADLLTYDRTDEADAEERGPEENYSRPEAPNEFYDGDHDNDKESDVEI

Histone deacetylase 4 [4] = target: T4, Histone deacetylase 4 (Homo sapiens, UniProt P56524); test: Inhibition of wild type HDAC4 at 10 uM
T4 sequence (P56524 whole entry): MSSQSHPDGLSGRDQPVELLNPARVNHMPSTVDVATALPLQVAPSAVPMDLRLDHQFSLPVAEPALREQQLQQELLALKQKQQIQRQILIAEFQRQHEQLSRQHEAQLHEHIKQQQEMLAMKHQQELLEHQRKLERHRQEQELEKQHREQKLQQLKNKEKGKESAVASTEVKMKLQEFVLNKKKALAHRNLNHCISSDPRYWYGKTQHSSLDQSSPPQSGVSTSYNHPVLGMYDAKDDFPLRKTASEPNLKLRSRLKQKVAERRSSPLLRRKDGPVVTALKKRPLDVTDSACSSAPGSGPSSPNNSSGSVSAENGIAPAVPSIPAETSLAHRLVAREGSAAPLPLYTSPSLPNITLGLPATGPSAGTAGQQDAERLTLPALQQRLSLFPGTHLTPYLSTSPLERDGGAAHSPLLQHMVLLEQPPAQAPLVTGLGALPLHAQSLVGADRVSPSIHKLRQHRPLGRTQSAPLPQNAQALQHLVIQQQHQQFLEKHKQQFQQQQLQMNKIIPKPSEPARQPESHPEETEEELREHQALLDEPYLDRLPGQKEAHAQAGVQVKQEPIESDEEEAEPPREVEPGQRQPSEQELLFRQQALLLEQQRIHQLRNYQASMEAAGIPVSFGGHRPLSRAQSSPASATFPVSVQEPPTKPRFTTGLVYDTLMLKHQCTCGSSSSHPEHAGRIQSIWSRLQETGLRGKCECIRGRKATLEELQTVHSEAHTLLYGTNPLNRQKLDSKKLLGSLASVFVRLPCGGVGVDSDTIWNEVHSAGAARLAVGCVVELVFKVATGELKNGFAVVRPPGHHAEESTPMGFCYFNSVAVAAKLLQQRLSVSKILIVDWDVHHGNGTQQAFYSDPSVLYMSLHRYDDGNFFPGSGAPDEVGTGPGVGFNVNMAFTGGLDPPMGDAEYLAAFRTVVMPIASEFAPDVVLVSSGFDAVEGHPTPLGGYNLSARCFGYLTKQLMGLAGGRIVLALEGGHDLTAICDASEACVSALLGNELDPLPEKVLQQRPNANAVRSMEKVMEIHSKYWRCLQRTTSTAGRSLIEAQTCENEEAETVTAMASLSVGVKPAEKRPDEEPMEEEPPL

Histone deacetylase 1 [5] = target: T5, Histone deacetylase 1 (Homo sapiens, UniProt Q13547); test: Inhibition of HDAC1 at 10 uM
T5 sequence (Q13547 whole entry): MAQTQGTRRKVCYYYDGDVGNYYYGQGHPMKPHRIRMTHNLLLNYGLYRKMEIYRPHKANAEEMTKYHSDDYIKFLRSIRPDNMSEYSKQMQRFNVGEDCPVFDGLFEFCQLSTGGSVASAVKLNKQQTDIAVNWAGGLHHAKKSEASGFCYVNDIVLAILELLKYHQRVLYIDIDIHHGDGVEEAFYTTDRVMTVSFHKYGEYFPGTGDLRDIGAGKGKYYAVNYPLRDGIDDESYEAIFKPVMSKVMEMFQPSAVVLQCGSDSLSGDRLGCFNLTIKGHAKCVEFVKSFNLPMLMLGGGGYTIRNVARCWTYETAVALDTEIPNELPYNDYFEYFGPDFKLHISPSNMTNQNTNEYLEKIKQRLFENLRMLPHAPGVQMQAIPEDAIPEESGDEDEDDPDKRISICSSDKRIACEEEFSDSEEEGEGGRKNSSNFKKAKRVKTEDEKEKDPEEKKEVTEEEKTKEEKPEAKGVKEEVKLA

[6] = target: T6, Protein deacetylase HDAC6 (Homo sapiens, UniProt Q9UBN7); test: Inhibition of HDAC6
T6 sequence (Q9UBN7 whole entry): T2 sequence (whole entry)

Histone deacetylase 3 [7] = target: T3, Histone deacetylase 3; test: Inhibition of HDAC3
Histone deacetylase 1 [8] = target: T5, Histone deacetylase 1; test: Inhibition of HDAC1
Histone deacetylase 3 [9] = target: T3, Histone deacetylase 3; test: Inhibition of HDAC3 at 5 uM
Histone deacetylase 4 [10] = target: Histone deacetylase 4 (Homo sapiens, UniProt P56524, H976Y); test: Inhibition of HDAC4GOF mutant expressed in Escherichia coli
Histone deacetylase 4 [11] = target: T4, Histone deacetylase 4; test: Inhibition of wild type HDAC4 expressed in Escherichia coli
Tubulin = test: Inhibition of tubulin deacetylation in human HCT116 cells; format: cell-based; conditions: hct-116
[12] = target: T2, Protein deacetylase HDAC6 (Homo sapiens); test: Inhibition of HDAC6 at 9 nM

Structure (SMILES) | Activity [1] | Activity (Histone deacetylase 3 [3]) | Activity (Histone deacetylase 4 [4]) | Activity (Histone deacetylase 1 [5]) | Activity [2] | IC50 [6] [µM] | also measured
CS(=O)(=O)c1ccc(C(=O)N2CCc3ccccc32)s1 | inactive | inactive | inactive | inactive | – | – | inhibition [2]: 47%
CN(Cc1ccccc1)C(=O)c1ccc(C(O)C(F)(F)F)s1 (stereo not given) | inactive | inactive | inactive | inactive | inactive | – | –
CC(=O)c1ccc(C(=O)N[C@H](C)c2ccccc2)s1 | inactive | inactive | inactive | inactive | – | 6.9 | –
O=C(c1ccc(B(O)O)s1)N1CCc2ccccc21 | inactive | inactive | inactive | inactive | – | – | inhibition [2]: 42%
O=C(c1ccc(C2(C(F)(F)F)OCCO2)s1)N1CCc2ccccc21 | inactive | inactive | inactive | inactive | inactive | – | –
O=C(c1ccc(P(=O)(O)O)s1)N1CCc2ccccc21 | inactive | inactive | inactive | inactive | inactive | – | –
C[C@@H](NC(=O)c1ccc(C(=O)NO)s1)c1ccccc1 | – | – | – | – | – | – | IC50 (Histone deacetylase 3 [7]): 0.01 µM; IC50 (Histone deacetylase 4 [10]): 0.1 µM; IC50 (Histone deacetylase 4 [11]): 2.7 µM; inhibition [12]: 94%
CN(Cc1ccc2nccnc2c1)C(=O)c1ccc(C(=O)O)s1 | inactive | inactive | inactive | inactive | inactive | – | –
CN(Cc1ccccc1)S(=O)(=O)c1csc(C(=O)C(F)(F)F)c1 | inactive | inactive | – | inactive | – | 2.5 | IC50 (Histone deacetylase 4 [11]): 9.4 µM

Further lines, with some results ahead:

Activity [1] | Activity (Histone deacetylase 3 [3]) | Activity (Histone deacetylase 4 [4]) | Activity (Histone deacetylase 1 [5]) | Activity [2] | IC50 [6] [µM] | Structure (SMILES) | also measured
– | inactive | – | inactive | – | 2.5 | O=C(NCC1CCCCC1)c1ccc(C(=O)C(F)(F)F)cc1 | inhibition [1]: 31%; inhibition (Histone deacetylase 4 [4]): 32%
inactive | – | inactive | – | inactive | – | COc1ccc(CNC(=O)c2ccc(C(=O)C(F)(F)C(F)(F)F)s2)cc1 | IC50 (Histone deacetylase 3 [7]): 2.9 µM; IC50 (Histone deacetylase 1 [8]): 4.2 µM
– | – | – | – | – | 0.31 | O=C(c1ccc(C(=O)C(F)(F)F)s1)N1CCn2c(-c3ccccc3)cnc2C1 | inhibition (Histone deacetylase 3 [9]): 44%; IC50 (Histone deacetylase 4 [10]): 0.37 µM; IC50 (Histone deacetylase 4 [11]): 0.32 µM; IC50 (Histone deacetylase 1 [8]): 5.5 µM
– | – | – | – | – | 0.089 | CN(Cc1ccc2nccnc2c1)C(=O)c1ccc(C(=O)C(F)(F)F)s1 | IC50 (Histone deacetylase 3 [7]): 0.67 µM; IC50 (Tubulin): 12 µM; IC50 (Histone deacetylase 4 [10]): 0.087 µM; IC50 (Histone deacetylase 4 [11]): 0.098 µM; IC50 (Histone deacetylase 1 [8]): 0.58 µM
inactive | inactive | – | inactive | – | 0.88 | O=C(c1ccc(C(=O)C(F)(F)F)[nH]1)N1CCc2ccccc21 | inhibition (Histone deacetylase 4 [4]): 47%
inactive | inactive | inactive | inactive | – | 4.2 | O=C(NCC1CCCCC1)c1cccc(C(=O)C(F)(F)F)c1 | –
